Entries after “also recorded” stand apart in the source; their conditions may differ.

A short description of assay [1]: Hydroxyl radical production, hydroxylation of benzoate by H2O2. The conditions noted are these: sodium benzoate + H2O2, cell-free. As to the method: The effects of the compounds on free radical production were evaluated in a cell-free system. In vitro hydroxyl radical production was determined by the hydroxylation of benzoate by H2O2 as described in Giardino et al., Diabetes 47:1114-1120, 1998. In brief, 30 mmol/l sodium benzoate in PBS buffer, pH 7.4, was incubated with 10 mmol/l H2O2 overnight at 37° C. alone and in the presence of various amounts of inhibitor compounds. After incubation, aliquots from each sample were analyzed for fluorescence (305 nm excitation; 408 nm emission). Results were expressed as the amount of salicylate equivalent (μM) produced by the hydroxylation of benzoate. Mannitol, a known hydroxyl radical scavenger, was included in the experiment as control.

The test system of another assay is Human LDL. In words: Cu++-mediated oxidation of LDL, TBARS (Example 9). The settings on record: 5 μM CuCl2, 10-250 μM compound, 5 hours, 37° C. On the procedure: The ability of the LR compounds to inhibit lipid peroxidation was tested using Cu^++-mediated lipid oxidation, a common in vitro model for studies on lipoxidative modifications of proteins. The effects of the LR compounds on lipid peroxidation were studied using Cu^++-mediated oxidation of LDL. Human LDL (50 μg of protein/mL) was incubated at 37° C. in chelex-treated PBS buffer alone or in the presence of 5 μM CuCl2 or 5 μM CuCl2 plus various concentrations of the inhibitor compounds (10-250 μM). After 5 hours of incubation, the amount of thiobarbituric acid reactive substances (expressed as malondialdehyde (MDA) equivalents) generated in the reaction mixture was calculated according to methods described by Dillon et al., Life Sci. #72:1583-1594, 2003. Briefly, aliquots from each sample were precipitated with 20% trichloroacetic acid, centrifuged and an equal volume of 1% thiobarbituric acid was added to the supernatant. The samples then were heated to 95° C. for 10 minutes, and upon cooling, the absorbance was read at 532 nm. Hydrolyzed tetraethoxypropane was used as a standard for the MDA equivalent calculation.

Assay [2] can be described thus: Superoxide production, methylglyoxal with N-α-acetyl-lysine, WST-1 assay. On the procedure: The superoxide radical scavenging activity of the compounds was evaluated using the WST-1 method described in Ukeda et al., Anal. Sci. 18:1151-1154, 2002. Briefly, methylglyoxal, was incubated with or without N-α-acetyl-lysine in 0.05 M chelex-treated sodium phosphate buffer, pH 7.4, in the presence of various concentrations of the inhibitor compounds. The production of superoxide was monitored spectrophotometrically at 438 nm, and compared with superoxide dismutase and Tiron, two known superoxide radical scavengers.

Assay [3] concerns STZ-Diabetic Rats. In words: Total plasma/serum triglycerides and cholesterol in STZ-diabetic rats (Example 2). It is filed as in vivo, rat. The conditions noted are these: 32 weeks, towards levels of non-diabetic animals. On the procedure:
Male Sprague-Dawley rats (about 175 to 200 g) were adapted for one week prior to treatment, then rendered diabetic by intra-peritoneal injection of STZ (65 mg/kg in citrate buffer, pH 4.5) after an overnight fast. Control (non-diabetic) animals were injected with the buffer only. Diabetes was confirmed by measuring the plasma glucose concentrations 7 days after Streptozotocin (STZ)-injection. Only animals with a plasma glucose concentration greater than 20 mmol were classified as diabetic and used in the study. These diabetic rats were divided randomly into an untreated diabetic control group and a diabetic treatment group. The treatment group received an LR compound at 50 mg/l in their drinking water throughout the duration of the study (32 weeks for LR-90; 30 weeks for LR-9 and LR-74). All animals were housed individually and were given free access to food and water.
Blood (from the tail vein) and urine samples were collected from rats for glycemic control analysis and albuminuria measurements. Glycemia was monitored every 8 weeks by measuring plasma glucose and glycated hemoglobin. Plasma or serum also was tested for total cholesterol and total triglycerides. Progression of renal dysfunction was assessed by measuring urinary albumin to creatinine ratio (UA/Cr) and serum or plasma creatinine. […]

In assay [4] the test system is STZ-Diabetic Rats. In words: Kidney anatomy and histopathology (PAS, trichrome, Picrosirius red, TEM). It is filed as in vivo, rat. An excerpt:
To quantitate glomerulosclerosis (defined as glomerular basement membrane thickening, mesangial hypertrophy, and capillary occlusion), kidney sections were stained with periodic acid Schiff (PAS) reagent. A total of 150 glomeruli were randomly chosen from each rat kidney (four different kidneys per treatment) and carefully graded for sclerosis, by a blinded evaluator. The degree of sclerosis in each glomerulus was graded subjectively on a scale of 1 to 4 as follows: grade 1, sclerotic area less than 25%; grade 2, sclerotic area 25-50%; grade 3, sclerotic area 51-75%; and grade 4, sclerotic area more than 75%. The glomerulosclerotic index (GSI) then was calculated using the following formula: GSI=Σ^4i=1 Fi (I), where Fi is the percentage of glomeruli in the rat with a given score of (I). See Wilkinson-Berka et al., Diabetes 51:3283-3289, 2002. To quantitate glomerulosclerosis, kidney sections were stained with periodic acid Schiff (PAS) reagent.
Cellular infiltrates were identified in the renal interstitium from 5 μm-thick kidney sections stained with PAS. Infiltrates in each kidney sample were graded as follows: + (patchy and light), ++ (patchy and dense), +++ (diffuse and dense with aggregates of neutrophils in tubules or in interstitium) also in a blinded manner. For collagen deposition staining in the kidneys, paraffin sections were randomly chosen from kidneys from each treatment group and stained with Masson's trichrome. Briefly, the sections were deparaffined, hydrated with water, and immersed in Mordant in Boiuin's solution for 10 minutes. The sections then were rinsed in water and stained with Mayer's hematoxylin for 6 minutes. After rinsing in water, Biebrich scarlet-acid fuchsin was added for 2 minutes, rinsed, phosphomolybdic-phosphotungstic solution added for 15 minutes, followed by aniline blue solution for 10 minutes. After rinsing the sections with water, glacial acetic acid was added for 20 seconds and then the slides were dehydrated with 95% ethanol. With this method, blue and red colors indicate collagen and cytoplasm staining, respectively. […]

For the compound `CC(C)(Oc1ccc(NC(=O)c2ccc3ccccc3c2)cc1)C(=O)O` [LR-9, 4-(2-napthylcarboxamido) phenoxyisobutyric acid], in assay [1], the “inhibition of hydroxyl radical formation” value is “strong inhibitors”.

On to `CC(Oc1cccc2cccnc12)C(=O)O` (stereo not shown) [LR-74, 2-(8-quinolinoxy) propionic acid], for which the “inhibition of Cu++-mediated LDL oxidation (lipid peroxidation)” value in the assay with Human LDL is recorded as “better than AG”. The “inhibition of hydroxyl radical formation” value in assay [1] is “strong inhibitors”. The “effect on superoxide production” value in assay [2] is on record as “little or no effect”.

“methylene bis(4,4′-(2-chlorophenylureidophenoxyisobutyric acid) [LR-90]”: in the assay on STZ-Diabetic Rats [3], the “reduction of serum cholesterol” value was determined as 50% and the “reduction of serum triglycerides” value amounted to 50%. In addition, in the assay with STZ-Diabetic Rats [4], the “basement membrane thickening (TEM photographs)” value is recorded as “reduced basement membrane thickening” and the “cellular infiltrates in the renal interstitium” value was “prevented cell infiltration; also recorded: no neutrophils were detected”. For the same compound, in the assay with STZ-Diabetic Rats [4] (32 weeks), the “collagen deposited inside the glomeruli and the tubulointerstitium (Picrosirius red)” value is “reduced”. In addition, in the assay with Human LDL, the “inhibition of Cu++-mediated LDL oxidation (lipid peroxidation)” value is given as “better than AG”.

The values are drawn from patent US7652037B2, “Methods of lowering lipid levels in a mammal” (City Of Hope, priority 2003, dated 2010).
